From patent US20230190924A1, “ANTIGEN OF ALLERGY AND EPITOPE THEREOF” (HOYU CO., LTD., priority 2017, published 2023)

Test system: IgE antibodies from patients
Test: Epitope mapping (2) overlapping (10-amino-acid peptides) and (3) alanine scanning on peptide arrays
Assay type: binding, human
Details: overlapping peptides with flanking sequence
Description: On the basis of the sequences (SEQ ID NOs: 272-295 for vitellogenin-2 precursor, SEQ ID NOs: 296-303 for vitellogenin-3, SEQ ID NOs: 304-311 for apolipoprotein B precursor, and SEQ ID NOs: 312-318 for vitellogenin-1 or lipovitellin-1) of the peptides bound to an IgE antibody in serum in a patient-specific manner as described above in (A), a library of overlapping peptide fragments (length: 10 amino acids) was prepared using the sequences of the peptides and sequences in which sequences were added so as to flank each peptide in the amino acid sequences of allergen components (amino acid sequences of SEQ ID NO: 59, 106 or 262 for vitellogenin-2 precursor, SEQ ID NO: 2, 13 or 47 for vitellogenin-3, SEQ ID NO: 152, 237 or 251 for apolipoprotein B, and SEQ ID NO: 18 for vitellogenin-1 or lipovitellin-1) comprising the sequences of the peptide to carry out epitope mapping.
The peptides to be synthesized were shifted by one amino acid.
The library was prepared by the same procedure as described above in (A), and the presence or absence of binding of an IgE antibody present in the serum of a patient and a non-egg-allergic subject to each peptide fragment was measured by the same technique as described above. Amino acids at positions where the binding activity against IgE antibodies from patients were lost or decreased in the peptides shifted by one amino acid while binding activity against IgE antibodies from non-egg-allergic subjects arose were confirmed as amino acids adversely affecting the specificity of binding to IgE antibodies.
Chemiluminescence intensity in images obtained by measurement was converted into a numeric value in the same manner as in (A) using ImageQuant TL (GE Healthcare). Numeric values determined from images obtained as a result of using only anti-human IgE antibody-HRP antibody without carrying out the procedures (2) and (3) described above in the subsection titled (3) Spotting of cellulose-bound peptide solution were […] numeric values determined from images obtained from results about the serum of 6 patients. It was determined that a peptide having the resulting value larger than 0 had no binding activity against IgE antibodies when having less than 20% of values obtained using the sequences (amino acid sequences of SEQ ID NO: 59, 106 or 262 for vitellogenin-2, SEQ ID NO: 2, 13 or 47 for vitellogenin-3, SEQ ID NO: 152, 237 or 251 for apolipoprotein B, and SEQ ID NO: 18 for vitellogenin-1 or lipovitellin-1) serving as the basis of overlapping, had binding activity, albeit poor, against IgE antibodies when having 20% or more and less than 50% thereof, had binding activity, albeit somewhat poor, against IgE antibodies when having 50% or more and less than 70% thereof, had almost equivalent binding activity against IgE antibodies when having 70% or more and less than 90% thereof, and had equivalent or good binding activity against IgE antibodies and thus had remaining binding activity against IgE antibodies when having 90% or more thereof.
From the amino acid sequences identified above in (A), a library of peptide fragments in which N-terminal amino acids were substituted one by one by alanine according to a technique called alanine scanning (Non Patent Literature 1) was prepared by the same technique as described above. The presence or absence of binding of an IgE antibody present in the serum of a patient and a non-egg-allergic subject to each peptide fragment was measured by the same technique as described above. Amino acids at positions where the binding activity against IgE antibodies from patients were lost or decreased by the substitution by alanine while binding activity against IgE antibodies from non-egg-allergic subjects arose were confirmed as amino acids important for exertion of original antigenicity, or amino acids influencing exertion of original antigenicity.

Substance | binding to IgE antibodies from patients, sequence comprising a region carboxy-terminally adjacent to the epitope | binding to IgE antibodies from patients, sequence comprising a region amino-terminally adjacent to the epitope
SEQ ID NO: 487: sequence comprising a region carboxy-terminally adjacent to epitope 20 (NIKIGSHEI; epitope) | binding to IgE antibodies from patients | –
SEQ ID NO: 492: sequence comprising a region amino-terminally adjacent to epitope 21 (LAAPGHG; epitope) | – | binding to IgE antibodies from patients
SEQ ID NO: 495: sequence comprising a region carboxy-terminally adjacent to epitope 21 (YFDGKTITIQ; epitope) | binding to IgE antibodies from patients | –
SEQ ID NO: 497: sequence comprising a region amino-terminally adjacent to epitope 21 (GFALAAPGHG; epitope) | – | binding to IgE antibodies from patients
SEQ ID NO: 498: sequence comprising a region amino-terminally adjacent to epitope 21 (ALAAPGHGID; epitope) | – | binding to IgE antibodies from patients
SEQ ID NO: 503: sequence comprising a region amino-terminally adjacent to epitope 21 (GFALAAPGHG; epitope) | – | binding to IgE antibodies from patients
SEQ ID NO: 515: sequence comprising a region carboxy-terminally adjacent to epitope 22 (GYLAKNAVSF; epitope) | binding to IgE antibodies from patients | –
SEQ ID NO: 516: sequence comprising a region amino-terminally adjacent to epitope 23 (PCRGACKLH; epitope) | – | binding to IgE antibodies from patients
SEQ ID NO: 517: sequence comprising a region amino-terminally adjacent to epitope 23 (APCRGACKLH; epitope) | – | binding to IgE antibodies from patients
SEQ ID NO: 523: sequence comprising a region carboxy-terminally adjacent to epitope 23 (FVKLEKTVQL; epitope) | binding to IgE antibodies from patients | –
SEQ ID NO: 535: sequence comprising a region carboxy-terminally adjacent to epitope 27 (YDAEKKREY; epitope) | binding to IgE antibodies from patients | –
SEQ ID NO: 542: sequence comprising a region carboxy-terminally adjacent to epitope 27 (YDAEKKRE; epitope) | binding to IgE antibodies from patients | –
SEQ ID NO: 550: sequence comprising a region amino-terminally adjacent to epitope 30 (EDTCTGACK; epitope) | – | binding to IgE antibodies from patients
SEQ ID NO: 551: sequence comprising a region carboxy-terminally adjacent to epitope 30 (QRKFVKIE; epitope) | binding to IgE antibodies from patients | –
SEQ ID NO: 553: sequence comprising a region amino-terminally adjacent to epitope 33 (IVTLAEKYDL; epitope) | – | binding to IgE antibodies from patients
SEQ ID NO: 556: sequence comprising a region carboxy-terminally adjacent to epitope 33 (NWAENLNQFI; epitope) | binding to IgE antibodies from patients | –
SEQ ID NO: 557: sequence comprising a region carboxy-terminally adjacent to epitope 33 (AENLNQFIET; epitope) | binding to IgE antibodies from patients | –
SEQ ID NO: 565: sequence comprising a region amino-terminally adjacent to epitope 34 (QDGTKVKLY; epitope) | – | binding to IgE antibodies from patients

Same assay, conditions: procedures (B) overlapping and (C) alanine scanning

Substance | region within the epitope important for binding to IgE antibodies from patients
SEQ ID NO: 486: region in epitope 20 (KAINIKIGS; epitope) | important for binding
SEQ ID NO: 491: region in epitope 21 (AAPGHG; epitope) | important for binding
SEQ ID NO: 494: region in epitope 21 (DKLYFD; epitope) | important for binding
SEQ ID NO: 500: region in epitope 21 (DKLYFDG; epitope) | important for binding
SEQ ID NO: 505: region in epitope 21 (AAPGHGID; epitope) | important for binding
SEQ ID NO: 507: region in epitope 21 (PGHGIDKLYF; epitope) | important for binding
SEQ ID NO: 509: region in epitope 21 (DKLYFDGKT; epitope) | important for binding
SEQ ID NO: 512: region in epitope 22 (MPNGYLAKNA; epitope) | important for binding
SEQ ID NO: 520: region in epitope 23 (ACKLHRSFVK; epitope) | important for binding
SEQ ID NO: 522: region in epitope 23 (RSFVKLE; epitope) | important for binding
SEQ ID NO: 528: region in epitope 26 (GLLIS; epitope) | important for binding
SEQ ID NO: 531: region in epitope 26 (GLLIS; epitope) | important for binding
SEQ ID NO: 533: region in epitope 27 (ICGKYDAE; epitope) | important for binding
SEQ ID NO: 534: region in epitope 27 (GICGKYDAE; epitope) | important for binding
SEQ ID NO: 539: region in epitope 27 (CGICGKYDA; epitope) | important for binding
SEQ ID NO: 541: region in epitope 27 (ICGKYDAEKK; epitope) | important for binding
SEQ ID NO: 544: region in epitope 27 (YDAEKK; epitope) | important for binding
SEQ ID NO: 555: region in epitope 33 (AEKYDLKN; epitope) | important for binding
SEQ ID NO: 561: region in epitope 34 (DEPLN; epitope) | important for binding
SEQ ID NO: 562: region in epitope 34 (DEPLNV; epitope) | important for binding
